Assay results from patent US11229641B2, “Inhibitors of Bcl-2” (CASE WESTERN RESERVE UNIVERSITY, priority 2016, dated 2022).
Where “and” joins values, the source holds several entries; their conditions need not be identical. Equal values may be shown once. Where no end group is shown, it is not given here.

Legend:
[1] = test system: small cell lung cancer (SCLC) cells; experiment: Cytotoxicity in small cell lung cancer (SCLC) lines; type: cell-based
[2] = test system: H2171 Small cell lung cancer (SCLC) cells; experiment: BIRD-2/ABT-263 combination cytotoxicity in SCLC cells; type: cell-based; conditions: 24 hr, FIG. 4
Protocol: FIG. 4 is a graph illustrating BIRD-2/ABT-263 synergism. H2171 Small cell lung cancer (SCLC) cells treated from 24 hr with 5 μM BIB1 and 39 nM ABT-263 alone or together.

[3] = test system: human myeloma cell lines (HMCLs); experiment: Apoptosis induction in human myeloma cell lines (HMCLs); type: cell-based; conditions: including two lines resistant to ABT-737, ABT-263 and ABT-199
Text: Furthermore, one of the BIRD-2-sensitive lines, NCI-H929, corresponds to a multiple molecular subgroup that is resistant to BH3-mimetic agents and belongs to a poor prognosis category associated with chromosomal translocation. Thus, although BH3-mimetic agents represent a major advance in cancer treatment, resistance to these agents occurs and limits their efficacy, not only in multiple myeloma but other lymphoid malignancies as well. The resistance problem is not unique to HMCLs, but is illustrated by studies of ABT-737 and ABT-199 in primary MM cells where resistance was detected in more than half of primary patient samples tested. Therefore, these findings indicate the potential therapeutic importance of targeting both of Bcl-2's anti-apoptotic mechanisms. Adding to the potential value of targeting Bcl-2-IP3R interaction for treatment of multiple myeloma is the evidence reported here of synergistic activity when combined with chemotherapeutic agents typically employed in multiple myeloma treatment, and with ABT-263 and ABT-199.

Bcl-XL = Bcl-XL (Homo sapiens, UniProt Q07817); conditions: read-out: IC50 displacing BH3 peptides; cited from earlier work
Bcl-B = biological target: T1, Bcl-B (Homo sapiens, UniProt Q9HD36); conditions: read-out: IC50 displacing BH3 peptides; cited from earlier work
T1 sequence (Q9HD36 1-204): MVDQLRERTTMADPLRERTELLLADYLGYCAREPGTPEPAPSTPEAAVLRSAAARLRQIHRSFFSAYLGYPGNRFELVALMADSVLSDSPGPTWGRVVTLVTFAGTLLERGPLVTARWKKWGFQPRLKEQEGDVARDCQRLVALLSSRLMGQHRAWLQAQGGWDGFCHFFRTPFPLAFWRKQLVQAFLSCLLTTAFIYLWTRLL

Bfl-1 = biological target: T2, Bfl-1 (Homo sapiens, UniProt Q16548); conditions: read-out: IC50 displacing BH3 peptides; cited from earlier work
T2 sequence (Q16548 1-175): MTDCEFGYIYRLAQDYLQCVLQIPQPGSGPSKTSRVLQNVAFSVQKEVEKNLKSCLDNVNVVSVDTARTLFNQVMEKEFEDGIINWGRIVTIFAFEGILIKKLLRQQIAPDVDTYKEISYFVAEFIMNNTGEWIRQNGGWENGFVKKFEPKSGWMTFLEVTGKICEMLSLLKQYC

Jurkat cells = experiment: Cytoplasmic Ca2+ elevation by digital imaging in Jurkat cells; type: cell-based
Protocol: These compounds, along with 320 additional compounds chosen by virtual screening, were screened for hit confirmation. Also, a secondary assay for compound effect on apoptosis was performed in KMS-12-BM cells. […] Thus, a total of 39 compounds were chosen for triplicate confirmation screening. The findings are schematically summarized by means of the heat map in FIG. 5. An ID number, assigned by the chemist(s) who synthesized the compounds, is located to the left. This ID is for identification purposes only and does provide other information about the compound. Columns 1 and 2 represent caspase activity, measured after 24 hr of treatment at UCDDC, normalized to the highest caspase activity observed. Activity levels range from low, represented by the color purple, to high, represented by the color red. Considerable variation among different compounds and between the myeloma lines is observed evident. […] In addition, the same assay was used to test the sensitivity of primary human CLL cells to each compound, as summarized in lane 5. The effect of each compound on intracellular Ca^2+ concentration was measured by digital imaging and results are shown as percentage of cells responding with a significant (more than twofold above baseline) elevation of cytoplasmic Ca^2+ concentration. […] An example of Ca2^+ elevation in response to one of the compounds is illustrated in FIG. 6. […]

BH4 domain of Bcl-2 = biological target: T3, BH4 domain of Bcl-2 (Homo sapiens, UniProt P10415); experiment: Surface plasmon resonance (Biacore) binding to the BH4 domain of Bcl-2; conditions: SPR; for Kd: dose response / full binding curve
T3 construct: borders or tags not given
Text: The next step in compound validation was to perform surface plasmon resonance (Biacore) to test for binding to the BH4 domain of Bcl-2. […] To date, we have positive evidence of compound binding to the BH4 domain in 4 compounds tested by SPR (FIG. 8). Testing of the remaining compounds from the 14 lead compounds is in progress.

[4] = test system: KMS-12-BM human myeloma cells; experiment: Combination with ABT-263, cell viability by CellTiter-Glo assay; type: cell-based; conditions: fixed concentration ratio, at several compound concentrations, CI<1 synergistic
Text: Since Bcl-2 works by two distinct mechanisms to inhibit apoptosis, we investigated the possibility that 854697 and ABT-263, which selectively target each of these mechanisms, might synergistically kill cancer cells. […] Combination indices (CI) were computed at each concentration to determine whether the increased cytotoxicity is due to an additive (CI=1) or synergistic (CI<1) effect. At several compound concentrations, the CI was <1, indicating synergistic cell death induction when these agents that act by different mechanisms are combined. These findings indicate additional value in developing 854697 as a novel therapeutic agent for Bcl-2-positive malignancies.

primary human CLL cells [5] = experiment: Ca2+ elevation in primary CLL cells; type: cell-based
multiple myeloma lines = experiment: Cell death induction in multiple myeloma lines (MTS assay); type: cell-based, human
Protocol: (§1) Of the compounds tested, 148 were identified as hits at 6.5 μM in the primary single-point screen with activity>30% relative to apoptosis induced by 10 μM BIRD-2 in NCI-H929 cells. These compounds, along with 320 additional compounds chosen by virtual screening, were screened for hit confirmation. Also, a secondary assay for compound effect on apoptosis was performed in KMS-12-BM cells. […] Thus, a total of 39 compounds were chosen for triplicate confirmation screening. The findings are schematically summarized by means of the heat map in FIG. 5. An ID number, assigned by the chemist(s) who synthesized the compounds, is located to the left. This ID is for identification purposes only and does provide other information about the compound. Columns 1 and 2 represent caspase activity, measured after 24 hr of treatment at UCDDC, normalized to the highest caspase activity observed. Activity levels range from low, represented by the color purple, to high, represented by the color red. Considerable variation among different compounds and between the myeloma lines is observed evident. Columns 3 and 4 in the heat map (FIG. 5) summarize results of cell death assays testing cell death induction in the same myeloma lines in the Distelhorst laboratory using the MTS assay. In addition, the same assay was used to test the sensitivity of primary human CLL cells to each compound, as summarized in lane 5. The effect of each compound on intracellular Ca^2+ concentration was measured by digital imaging and results are shown as percentage of cells responding with a significant (more than twofold above baseline) elevation of cytoplasmic Ca^2+ concentration. The choice of the Jurkat line for these Ca^2+ measurements was based on our extensive evidence that BIRD-2 binds to the BH4 domain of Bcl-2 endogenously present in this line and that disruption of Bcl-2-IP3R interaction by BIRD-2 elevates cytoplasmic Ca^2+ in this line. An example of Ca2^+ elevation in response to one of the compounds is illustrated in FIG. 6.

primary human CLL cells [6] = experiment: Cell death induction in primary human CLL cells (MTS assay); type: cell-based
Protocol: as §1

[7] = test system: normal human peripheral blood lymphocytes; experiment: Toxicity toward normal cells; type: cell-based

T3 sequence (P10415 6-30 limits assumed): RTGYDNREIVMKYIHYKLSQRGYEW
Chain of Bcl-XL (Q07817 whole entry, species assumed): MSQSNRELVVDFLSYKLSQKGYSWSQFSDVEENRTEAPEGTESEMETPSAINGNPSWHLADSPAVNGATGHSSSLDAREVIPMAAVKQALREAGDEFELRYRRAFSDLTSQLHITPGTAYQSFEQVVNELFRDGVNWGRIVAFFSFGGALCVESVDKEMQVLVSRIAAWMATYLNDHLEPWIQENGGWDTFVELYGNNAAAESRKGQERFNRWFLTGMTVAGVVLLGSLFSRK

For “RKKRRQRRRGGNVYTEIKCNSLLPLAAIVRV [BIRD-2]”, the selective cytotoxicity ([1]; 15 SCLC lines treated) was “greater than two-fold selective cytotoxicity in 11 of the lines”, the “cytotoxicity in combination with ABT-263” value [2] was “synergistic cytotoxicity” and the apoptosis induction [3] was “induces apoptosis”.
For Cc1cc2c(C(C)C)c(O)c(O)c(C=O)c2c(O)c1-c1c(C)cc2c(C(C)C)c(O)c(O)c(C=O)c2c1O [Gossypol, 1,6,7,1′,6′,7′-Hexahydroxy-5,5′-diisopropyl-3,3′-dimethyl-[2,2′]binaphthalenyl-8,8′-dicarbaldehyde], the IC50 (Bcl-XL) is given as ~0.5 µM, the IC50 (Bcl-B) is given as ~0.5 µM and the IC50 (Bfl-1) is given as ~0.5 µM.
With COc1ccc2c(c1)CC[C@@H]1[C@@H]2CC[C@]2(C)[C@@H](NCCCCCCN3C(=O)C=CC3=O)CC[C@@H]12 [U73122, reference compound] the “effect on 854697-induced Ca2+ elevation” value (Jurkat cells; Jurkat cells pretreated 30 min with U73122) was “completely blocked”.
In the case of CN(C)C(=O)OCC(Cc1ccc2ccccc2c1)N1CCN(C(=O)C(N)Cc2ccc(F)cc2)C(CO)C1 (centres unmarked) [compound 854697], the “binding to the BH4 domain of Bcl-2” value (BH4 domain of Bcl-2) is reported as “bind to the BH4 domain of Bcl-2”, the Kd (BH4 domain of Bcl-2) is reported as 5.6 µM and 5.7 µM and 5.71 µM and the “killing of small cell lung cancer cells” value [1] is reported as “kills small cell lung cancer cells”. For the same molecule, the “Combination index (CI) with ABT-263” value [4] was < 1, the “Ca2+ elevation” value (Jurkat cells; Jurkat cells) was “inducing IP3R-mediated Ca^2+ elevation” and the “Ca2+ elevation” value (primary human CLL cells [5]) was “induces Ca^2+ elevation”. The cell death induction (multiple myeloma lines) was “inducing cell death”, the cell death induction (primary human CLL cells [6]) was “inducing cell death” and the “toxic activity toward normal cells” value [7] was “does not have toxic activity toward normal cells”.
For O=C(/C=C/c1ccc(Cl)c(Cl)c1)NN1CCOC1=O [compound 96505], the “binding to the BH4 domain of Bcl-2” value (BH4 domain of Bcl-2) was “bind to the BH4 domain of Bcl-2”, the Kd (BH4 domain of Bcl-2) was 24 µM and the cell death induction (multiple myeloma lines) was “inducing cell death”. The cell death induction (primary human CLL cells [6]) was “inducing cell death”.
In the case of CSc1c(C#N)c(N)nc(SCC(=O)c2ccc(OC(F)F)cc2)c1C#N [compound 197392], the “binding to the BH4 domain of Bcl-2” value (BH4 domain of Bcl-2) is reported as “bind to the BH4 domain of Bcl-2”, the cell death induction (multiple myeloma lines) is reported as “inducing cell death” and the cell death induction (primary human CLL cells [6]) is reported as “inducing cell death”.
